Experiments:
[1] = organism: Homo sapiens; assay: Selectivity index, ratio of IC50 for COMT (unknown origin) (test compound)/IC50 for FTO (unknown origin) (test compound) to IC50 for COMT (entacapone)/IC50 for FTO (entacapone)
[2] = target: Alpha-ketoglutarate-dependent dioxygenase FTO (Homo sapiens, UniProt Q9C0B1); assay: Inhibition of FTO (unknown origin) assessed as reduction in demethylation by measuring N6-mA and A level incubated for 2 hrs by HPLC-MS/MS analysis
Alpha-ketoglutarate-dependent dioxygenase FTO, sequence (Q9C0B1 whole entry): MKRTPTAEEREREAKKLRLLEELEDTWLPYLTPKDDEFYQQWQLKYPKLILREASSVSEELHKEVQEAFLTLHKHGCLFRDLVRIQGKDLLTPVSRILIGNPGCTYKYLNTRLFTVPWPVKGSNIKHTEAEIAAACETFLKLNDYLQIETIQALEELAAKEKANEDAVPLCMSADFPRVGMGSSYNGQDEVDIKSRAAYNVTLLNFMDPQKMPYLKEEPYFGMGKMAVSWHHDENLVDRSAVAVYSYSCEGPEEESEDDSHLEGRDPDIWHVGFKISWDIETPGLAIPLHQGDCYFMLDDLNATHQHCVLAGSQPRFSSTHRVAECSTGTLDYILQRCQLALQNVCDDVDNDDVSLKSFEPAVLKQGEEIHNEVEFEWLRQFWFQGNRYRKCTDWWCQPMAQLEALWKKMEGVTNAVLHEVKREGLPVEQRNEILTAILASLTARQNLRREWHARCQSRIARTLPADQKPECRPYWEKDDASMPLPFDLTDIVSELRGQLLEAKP

Structure (SMILES): N#C/C(=C\c1cc(O)c(O)c([N+](=O)[O-])c1)C(=O)N1CCC1
- Ratio IC50 [1]: 1.65

Structure (SMILES): CCN(CC)C(=O)/C(C#N)=C/c1cc(O)c(O)c([N+](=O)[O-])c1 [ENTACAPONE]
- IC50 [2]: 3 µM

— ChEMBL document CHEMBL4418489, “FTO inhibitors” (2018)
